Assay results as given in patent US20070128217A1 (priority 2003, published 2007).

How the values were obtained:
[1] = system: control sera (pooled serum of ten healthy LUMC hospital workers; commercial negative donor pooled serum from the Dutch bloodbank); type: binding, human; parameters: Binding of Control serum LUMC to linear peptides / Binding of Control serum Blood-bank to linear peptides / Binding of Control serum LUMC to looped peptides / Binding of Control Serum Blood-Bank to Looped peptides / Binding of Control serum LUMC to linear peptides of the protein M of SARS-CoV Urbani / Binding of Control serum Blood-bank to linear peptides of the protein M of SARS-CoV Urbani / Binding of Control serum LUMC to looped peptides of the protein M of SARS-CoV Urbani / Binding of Control Serum Blood-Bank to Looped peptides of the protein M of SARS-CoV Urbani: unit not given here
[2] = system: antibodies in sera from SARS patients (sera 1a, 1b, 2, 6, 37, 62, London, SARS-yellow, SARS-green); type: binding, human; parameters: Binding of serum 6 to linear peptides of protein X1 of SARS-CoV Urbani / Binding of serum 37 to linear peptides of protein X1 of SARS-CoV Urbani / Binding of serum 6 to looped/cyclic peptide (PEPSCAN-ELISA) / Binding of serum 37 to looped/cyclic peptide (PEPSCAN-ELISA) / Binding of serum 37 to looped/cyclic peptides of protein X1 of SARS-CoV Urbani / Binding of serum 6 to linear peptides of protein X2 / Binding of serum 37 to linear peptides of protein X2 / Binding of serum 37 to looped/cyclic peptides of protein X2 of SARS-CoV Urbani / Binding of serum 6 to linear peptides of protein M of SARS-CoV Urbani / Binding of serum 37 to linear peptides of protein M of SARS-CoV Urbani / Binding of serum 6 to looped/cyclic peptides of protein M of SARS-CoV Urbani / Binding of serum 37 to looped/cyclic peptides of protein M of SARS-CoV Urbani / Binding of serum 6 to linear peptides of protein X3 of SARS-CoV Urbani / Binding of serum 37 to linear peptides of protein X3 of SARS-CoV Urbani / Binding of serum 37 to looped/cyclic peptides of protein X3 of SARS-CoV Urbani / Binding of serum 6 to linear peptides of protein X4 of SARS-CoV Urbani / Binding of serum 37 to linear peptides of protein X4 of SARS-CoV Urbani / Binding of serum 37 to looped/cyclic peptides of protein X4 of SARS-CoV Urbani / Binding of serum 6 to linear peptides of protein X5 of SARS-CoV Urbani / Binding of serum 37 to linear peptides of protein X5 of SARS-CoV Urbani / Binding of serum 37 to looped/cyclic peptides of protein X5 of SARS-CoV Urbani / Binding of serum 6 to linear peptides of protein N of SARS-CoV Urbani / Binding of serum 37 to linear peptides of protein N of SARS-CoV Urbani / Binding of serum 6 to linear peptide (PEPSCAN-ELISA) / Binding of serum 1a to looped/cyclic peptides of protein N of SARS-CoV Urbani / Binding of serum 1b to looped/cyclic peptides of protein N of SARS-CoV Urbani / Binding of serum 2 to looped/cyclic peptides of protein N of SARS-CoV Urbani / Binding of serum 6 to looped/cyclic peptides of protein N of SARS-CoV Urbani / Binding of serum 37 to looped/cyclic peptides of protein N of SARS-CoV Urbani / Binding of serum 62 to looped/cyclic peptides of protein N of SARS-CoV Urbani / Binding of serum London to looped/cyclic peptides of protein N of SARS-CoV Urbani / Binding of serum SARS-green to looped/cyclic peptides of protein N of SARS-CoV Urbani: unit not given here
[3] = system: rabbit serum obtained by immunizing a rabbit with the SARS-CoV strain Frankfurt 1; type: binding; parameters: Binding of a rabbit serum to linear peptides / Binding of a rabbit serum to looped peptides / Rabbit serum linear peptides / Rabbit serum looped peptides / Binding of a rabbit serum to linear peptides of protein N of SARS-CoV Urbani (Rabbit serum linear peptides) / Binding of a rabbit serum to looped/cyclic peptides of protein N of SARS-CoV Urbani (Rabbit serum looped peptides): unit not given here

KIILFLTLIVFTSCE
Binding of Control Serum Blood-Bank to Looped peptides [1]: 0.8
Binding of Control serum Blood-bank to linear peptides [1]: 0.8
Binding of Control serum LUMC to linear peptides [1]: 0.9
Binding of Control serum LUMC to looped peptides [1]: 0.9
Binding of serum 1a to linear peptides of protein X4 of SARS-CoV Urbani [2]: 0.8
Binding of serum 1a to looped/cyclic peptides of protein X4 of SARS-CoV Urbani [2]: 0.9
Binding of serum 1b to linear peptides of protein X4 of SARS-CoV Urbani [2]: 0.9
Binding of serum 1b to looped/cyclic peptides of protein X4 of SARS-CoV Urbani [2]: 0.2
Binding of serum 2 to linear peptides of protein X4 of SARS-CoV Urbani [2]: 0.7
Binding of serum 2 to looped/cyclic peptides of protein X4 of SARS-CoV Urbani [2]: 0.8
Binding of serum 6 to linear peptides of protein X4 of SARS-CoV Urbani [2]: 0.7
Binding of serum 6 to looped/cyclic peptides of protein X4 of SARS-CoV Urbani [2]: 0.6
Binding of serum 37 to linear peptides of protein X4 of SARS-CoV Urbani [2]: 1.1
Binding of serum 37 to looped/cyclic peptides of protein X4 of SARS-CoV Urbani [2]: 0.9
Binding of serum 62 to linear peptides of protein X4 of SARS-CoV Urbani [2]: 0.9
Binding of serum 62 to looped/cyclic peptides of protein X4 of SARS-CoV Urbani [2]: 0.9
Binding of serum London to linear peptides of protein X4 of SARS-CoV Urbani [2]: 0.8
Binding of serum London to looped/cyclic peptides of protein X4 of SARS-CoV Urbani [2]: 0.4
Binding of serum SARS-green to linear peptides of protein X4 of SARS-CoV Urbani [2]: 0.7
Binding of serum SARS-green to looped/cyclic peptides of protein X4 of SARS-CoV Urbani [2]: 0.7
Binding of serum SARS-yellow to linear peptides of protein X4 of SARS-CoV Urbani [2]: 0.9
Binding of serum SARS-yellow to looped/cyclic peptides of protein X4 of SARS-CoV Urbani [2]: 0.8
Rabbit serum linear peptides [3]: 0.7
Rabbit serum looped peptides [3]: 0.9

VVTEGDGISTPKLKE
Binding of Control Serum Blood-Bank to Looped peptides [1]: 0.3
Binding of Control serum Blood-bank to linear peptides [1]: 0.3
Binding of Control serum LUMC to linear peptides [1]: 0.2
Binding of Control serum LUMC to looped peptides [1]: 0.3
Binding of serum 1a to linear peptides of protein X1 of SARS-CoV Urbani [2]: 0.5
Binding of serum 1a to looped/cyclic peptides of protein X1 of SARS-CoV Urbani [2]: 0.3
Binding of serum 1b to linear peptides of protein X1 of SARS-CoV Urbani [2]: 0.4
Binding of serum 1b to looped/cyclic peptides of protein X1 of SARS-CoV Urbani [2]: 0.3
Binding of serum 2 to linear peptides of protein X1 of SARS-CoV Urbani [2]: 0.3
Binding of serum 2 to looped/cyclic peptides of protein X1 of SARS-CoV Urbani [2]: 0.1
Binding of serum 6 to linear peptides of protein X1 of SARS-CoV Urbani [2]: 0.2
Binding of serum 6 to looped/cyclic peptides of protein X1 of SARS-CoV Urbani [2]: 0.2
Binding of serum 37 to linear peptides of protein X1 of SARS-CoV Urbani [2]: 0.4
Binding of serum 37 to looped/cyclic peptides of protein X1 of SARS-CoV Urbani [2]: 0.3
Binding of serum 62 to linear peptides of protein X1 of SARS-CoV Urbani [2]: 0.3
Binding of serum 62 to looped/cyclic peptides of protein X1 of SARS-CoV Urbani [2]: 0.3
Binding of serum London to linear peptides of protein X1 of SARS-CoV Urbani [2]: 0.3
Binding of serum London to looped/cyclic peptides of protein X1 of SARS-CoV Urbani [2]: 0.2
Binding of serum SARS-green to linear peptides of protein X1 of SARS-CoV Urbani [2]: 0.1
Binding of serum SARS-green to looped/cyclic peptides of protein X1 of SARS-CoV Urbani [2]: 0.1
Binding of serum SARS-yellow to linear peptides of protein X1 of SARS-CoV Urbani [2]: 0.1
Binding of serum SARS-yellow to looped/cyclic peptides of protein X1 of SARS-CoV Urbani [2]: 0.2
Binding of a rabbit serum to linear peptides [3]: 0.1
Binding of a rabbit serum to looped peptides [3]: 0.4

LIVAALVFLILCFTI
Binding of Control Serum Blood-Bank to Looped peptides [1]: 0.5
Binding of Control serum Blood-bank to linear peptides [1]: 0.6
Binding of Control serum LUMC to linear peptides [1]: 0.4
Binding of Control serum LUMC to looped peptides [1]: 0.5
Binding of serum 1a to linear peptides of protein X4 of SARS-CoV Urbani [2]: 0.7
Binding of serum 1a to looped/cyclic peptides of protein X4 of SARS-CoV Urbani [2]: 0.6
Binding of serum 1b to linear peptides of protein X4 of SARS-CoV Urbani [2]: 0.5
Binding of serum 1b to looped/cyclic peptides of protein X4 of SARS-CoV Urbani [2]: 0.3
Binding of serum 2 to linear peptides of protein X4 of SARS-CoV Urbani [2]: 0.5
Binding of serum 2 to looped/cyclic peptides of protein X4 of SARS-CoV Urbani [2]: 0.5
Binding of serum 6 to linear peptides of protein X4 of SARS-CoV Urbani [2]: 0.4
Binding of serum 6 to looped/cyclic peptides of protein X4 of SARS-CoV Urbani [2]: 0.3
Binding of serum 37 to linear peptides of protein X4 of SARS-CoV Urbani [2]: 0.6
Binding of serum 37 to looped/cyclic peptides of protein X4 of SARS-CoV Urbani [2]: 0.6
Binding of serum 62 to linear peptides of protein X4 of SARS-CoV Urbani [2]: 0.6
Binding of serum 62 to looped/cyclic peptides of protein X4 of SARS-CoV Urbani [2]: 0.6
Binding of serum London to linear peptides of protein X4 of SARS-CoV Urbani [2]: 0.6
Binding of serum London to looped/cyclic peptides of protein X4 of SARS-CoV Urbani [2]: 0.2
Binding of serum SARS-green to linear peptides of protein X4 of SARS-CoV Urbani [2]: 0.5
Binding of serum SARS-green to looped/cyclic peptides of protein X4 of SARS-CoV Urbani [2]: 0.4
Binding of serum SARS-yellow to linear peptides of protein X4 of SARS-CoV Urbani [2]: 0.4
Binding of serum SARS-yellow to looped/cyclic peptides of protein X4 of SARS-CoV Urbani [2]: 0.5
Rabbit serum linear peptides [3]: 0.5
Rabbit serum looped peptides [3]: 0.4
